Data from PubChem BioAssay (NCI).
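Growth conditions: 96-well plates. Treatment: test compound, 48 hours, 5 concentrations. Analysis: linear interpolation between bracketing concentrations; unreached endpoints set to highest concentration. The concentration for full growth arrest is given as TGI.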

How the values were obtained:
Experiment in all cases: DTP human tumour cell line panel, 48 h
[1] = tested on: HT29 colon
[2] = tested on: OVCAR-5 ovarian
[3] = tested on: OVCAR-3 ovarian
[4] = tested on: CCRF-CEM leukemia
[5] = tested on: SK-MEL-5 melanoma
[6] = tested on: HCT-116 colon
[7] = tested on: 786-0 renal
[8] = tested on: NCI-H460 lung
[9] = tested on: UACC-257 melanoma
[10] = tested on: SK-MEL-28 melanoma
[11] = tested on: KM12 colon
[12] = tested on: U251 CNS
[13] = tested on: NCI-H522 lung
[14] = tested on: HOP-18 NSCLC
[15] = tested on: COLO 205 colon
[16] = tested on: CAKI-1 renal
[17] = tested on: SF-268 CNS
[18] = tested on: KM20L2 colon
[19] = tested on: EKVX NSCLC
[20] = tested on: SN12C renal
[21] = tested on: LXFL 529 NSCLC
[22] = tested on: M14 melanoma
[23] = tested on: MALME-3M melanoma
[24] = tested on: SW-620 colon
[25] = tested on: HCC-2998 colon
[26] = tested on: NCI-H23 lung
[27] = tested on: SK-MEL-2 melanoma
[28] = tested on: HOP-92 NSCLC
[29] = tested on: LOX IMVI melanoma
[30] = tested on: HOP-62 NSCLC
[31] = tested on: NCI-H226 lung
[32] = tested on: UO-31 renal
[33] = tested on: ACHN renal
[34] = tested on: DLD-1 colon
[35] = tested on: DMS 114 small cell lung
[36] = tested on: RPMI-8226 leukemia
[37] = tested on: RXF 393 renal
[38] = tested on: SK-OV-3 ovarian
[39] = tested on: TK-10 renal
[40] = tested on: SNB-78 CNS
[41] = tested on: A498 renal
[42] = tested on: SNB-19 CNS
[43] = tested on: M19-MEL melanoma
[44] = tested on: SNB-75 CNS
[45] = tested on: SF-295 CNS
[46] = tested on: HCT-15 colon
[47] = tested on: K-562 leukemia
[48] = tested on: SF-539 CNS
[49] = tested on: OVCAR-8 ovarian
[50] = tested on: OVCAR-4 ovarian
[51] = tested on: DMS 273 small cell lung
[52] = tested on: A549 NSCLC
[53] = tested on: XF 498 CNS
[54] = tested on: UACC-62 melanoma
[55] = tested on: HL-60(TB) leukemia
[56] = tested on: IGROV1 ovarian
[57] = tested on: SR leukemia
[58] = tested on: MOLT-4 leukemia
[59] = tested on: MDA-MB-435
[60] = tested on: DU-145 prostate
[61] = tested on: MDA-MB-231 breast
[62] = tested on: HS 578T breast
[63] = tested on: PC-3 prostate
[64] = tested on: BT-549 breast
[65] = tested on: MCF7 breast
[66] = tested on: NCI/ADR-RES ovarian
[67] = tested on: MDA-N
[68] = tested on: T-47D breast

In the case of `O=C(N/N=C1\C(=O)N(c2nccs2)C(=O)C(=O)C1c1nc2ccccc2s1)c1ccccc1O` (centres undefined), the TGI [1] is reported as greater than 100 µM, the TGI [2] is reported as greater than 100 µM and the TGI [3] is reported as greater than 100 µM. It also gave a TGI [4] greater than 100 µM, a TGI [5] greater than 100 µM and a TGI [6] greater than 100 µM. The TGI [7] was greater than 100 µM, the TGI [8] was greater than 100 µM and the TGI [9] was greater than 100 µM. The TGI [10] was greater than 100 µM, the TGI [11] was greater than 100 µM and the TGI [12] was greater than 100 µM. It also gave a TGI [13] of 96.9 µM, a TGI [14] of 77.4 µM and a TGI [15] greater than 100 µM. For the same compound, the TGI [16] was greater than 100 µM, the TGI [17] was greater than 100 µM and the TGI [18] was greater than 100 µM. For the same compound, the TGI [19] was greater than 100 µM, the TGI [20] was greater than 100 µM and the TGI [21] was greater than 100 µM. The TGI [22] was greater than 100 µM, the TGI [23] was greater than 100 µM and the TGI [24] was greater than 100 µM. It also gave a TGI [25] greater than 100 µM, a TGI [26] greater than 100 µM and a TGI [27] greater than 100 µM. The TGI [28] was greater than 100 µM, the TGI [29] was greater than 100 µM and the TGI [30] was 90.4 µM. The TGI [31] was greater than 100 µM, the TGI [32] was 35.4 µM and the TGI [33] was greater than 100 µM. It also gave a TGI [34] greater than 100 µM, a TGI [35] greater than 100 µM and a TGI [36] greater than 100 µM. For the same compound, the TGI [37] was greater than 100 µM, the TGI [38] was greater than 100 µM and the TGI [39] was greater than 100 µM. It also gave a TGI [40] greater than 100 µM, a TGI [41] greater than 100 µM and a TGI [42] greater than 100 µM. The TGI [43] was greater than 100 µM, the TGI [44] was greater than 100 µM and the TGI [45] was greater than 100 µM. For the same compound, the TGI [46] was greater than 100 µM, the TGI [47] was greater than 100 µM and the TGI [48] was greater than 100 µM. It also gave a TGI [49] greater than 100 µM, a TGI [50] greater than 100 µM and a TGI [51] greater than 100 µM. It also gave a TGI [52] greater than 100 µM, a TGI [53] greater than 100 µM and a TGI [54] greater than 100 µM. The TGI [55] was greater than 100 µM and the TGI [56] was greater than 100 µM.
`CC1(C(=O)Nc2ccc3ccccc3c2)CC2(C)CC(C)(C1)C(O)NC2=O` (centres undefined) gave a TGI [1] greater than 100 µM, a TGI [2] greater than 100 µM and a TGI [4] greater than 100 µM. The TGI [8] was greater than 100 µM, the TGI [9] was greater than 100 µM and the TGI [10] was greater than 100 µM. The TGI [11] was greater than 100 µM, the TGI [12] was greater than 100 µM and the TGI [13] was greater than 100 µM. The TGI [17] was greater than 100 µM, the TGI [57] was greater than 100 µM and the TGI [19] was greater than 100 µM. It also gave a TGI [22] greater than 100 µM, a TGI [26] greater than 100 µM and a TGI [28] greater than 100 µM. The TGI [30] was greater than 100 µM, the TGI [32] was greater than 100 µM and the TGI [33] was greater than 100 µM. For the same compound, the TGI [37] was greater than 100 µM, the TGI [38] was greater than 100 µM and the TGI [58] was greater than 100 µM. It also gave a TGI [39] greater than 100 µM, a TGI [40] greater than 100 µM and a TGI [41] greater than 100 µM. For the same compound, the TGI [42] was greater than 100 µM, the TGI [43] was greater than 100 µM and the TGI [45] was greater than 100 µM. For the same compound, the TGI [49] was greater than 100 µM, the TGI [51] was greater than 100 µM and the TGI [52] was greater than 100 µM. For the same compound, the TGI [54] was greater than 100 µM, the TGI [55] was greater than 100 µM and the TGI [56] was greater than 100 µM.
In the case of `CC1=C(/C=C/C(C)=C/C=C/C(C)=C/C(=O)O)C(C)(C)CCC1`, the TGI [1] is reported as 68.3 µM, the TGI [59] is reported as greater than 100 µM and the TGI [2] is reported as greater than 85.4 µM. For the same compound, the TGI [3] was 63.9 µM, the TGI [4] was 70.8 µM and the TGI [5] was 63.3 µM. For the same compound, the TGI [6] was 64.2 µM, the TGI [7] was 68.1 µM and the TGI [8] was 70.5 µM. For the same compound, the TGI [9] was 99.7 µM, the TGI [10] was greater than 82.2 µM and the TGI [11] was 60.2 µM. For the same compound, the TGI [12] was 70.7 µM, the TGI [13] was greater than 83.7 µM and the TGI [14] was greater than 100 µM. For the same compound, the TGI [15] was 63.6 µM, the TGI [60] was greater than 100 µM and the TGI [16] was greater than 93.2 µM. The TGI [17] was greater than 75.1 µM, the TGI [18] was greater than 100 µM and the TGI [57] was greater than 87.4 µM. For the same compound, the TGI [61] was 99.6 µM, the TGI [62] was greater than 81 µM and the TGI [19] was greater than 100 µM. The TGI [63] was greater than 100 µM, the TGI [20] was 72.1 µM and the TGI [21] was greater than 100 µM. The TGI [22] was 71.5 µM, the TGI [23] was greater than 75.6 µM and the TGI [24] was 64.2 µM. For the same compound, the TGI [64] was 63 µM, the TGI [25] was 66.8 µM and the TGI [26] was 79.3 µM. The TGI [27] was 48.8 µM, the TGI [28] was greater than 83.4 µM and the TGI [29] was 52.6 µM. For the same compound, the TGI [30] was 66 µM, the TGI [31] was 72.6 µM and the TGI [32] was greater than 74.7 µM. For the same compound, the TGI [33] was 75.9 µM, the TGI [34] was greater than 100 µM and the TGI [35] was greater than 100 µM. It also gave a TGI [36] of 57.7 µM, a TGI [37] greater than 81.5 µM and a TGI [38] greater than 100 µM. The TGI [58] was 69.1 µM, the TGI [39] was greater than 100 µM and the TGI [41] was greater than 91.1 µM. The TGI [42] was greater than 84.6 µM, the TGI [43] was greater than 100 µM and the TGI [44] was greater than 100 µM. It also gave a TGI [45] greater than 88.6 µM, a TGI [65] greater than 77.9 µM and a TGI [46] of 70.3 µM. It also gave a TGI [66] of 70 µM, a TGI [47] greater than 79.9 µM and a TGI [48] of 75.7 µM. The TGI [49] was greater than 77.9 µM, the TGI [67] was greater than 100 µM and the TGI [50] was greater than 100 µM. For the same compound, the TGI [51] was greater than 100 µM, the TGI [52] was greater than 79.4 µM and the TGI [53] was greater than 100 µM. For the same compound, the TGI [54] was greater than 77.4 µM, the TGI [55] was 59.3 µM and the TGI [56] was greater than 100 µM.
With `Cc1ccnc2[nH]c(-c3ccc(F)cc3)cc(=O)c12` the TGI [1] was greater than 100 µM, the TGI [59] was greater than 44.8 µM and the TGI [2] was greater than 100 µM. The TGI [3] was greater than 100 µM, the TGI [4] was greater than 100 µM and the TGI [5] was greater than 100 µM. For the same compound, the TGI [6] was greater than 100 µM, the TGI [7] was greater than 100 µM and the TGI [8] was greater than 60.4 µM. For the same compound, the TGI [9] was greater than 100 µM, the TGI [10] was greater than 100 µM and the TGI [11] was greater than 100 µM. The TGI [12] was greater than 100 µM, the TGI [13] was greater than 66.8 µM and the TGI [15] was greater than 76.8 µM. It also gave a TGI [60] greater than 100 µM, a TGI [16] greater than 100 µM and a TGI [17] greater than 100 µM. It also gave a TGI [57] of 25.9 µM, a TGI [61] greater than 100 µM and a TGI [62] greater than 100 µM. For the same compound, the TGI [19] was greater than 100 µM, the TGI [63] was greater than 100 µM and the TGI [20] was greater than 100 µM. For the same compound, the TGI [22] was greater than 46.4 µM, the TGI [23] was greater than 100 µM and the TGI [24] was greater than 100 µM. The TGI [64] was greater than 100 µM, the TGI [25] was greater than 100 µM and the TGI [26] was greater than 100 µM. For the same compound, the TGI [27] was greater than 100 µM, the TGI [28] was greater than 100 µM and the TGI [29] was greater than 100 µM. It also gave a TGI [30] greater than 100 µM, a TGI [31] greater than 100 µM and a TGI [32] greater than 100 µM. The TGI [33] was greater than 100 µM, the TGI [36] was greater than 100 µM and the TGI [37] was greater than 100 µM. It also gave a TGI [38] greater than 100 µM, a TGI [68] greater than 100 µM and a TGI [58] greater than 100 µM. For the same compound, the TGI [39] was greater than 100 µM, the TGI [41] was 97.9 µM and the TGI [42] was greater than 100 µM. For the same compound, the TGI [44] was greater than 100 µM, the TGI [45] was greater than 100 µM and the TGI [65] was greater than 100 µM. For the same compound, the TGI [46] was greater than 100 µM, the TGI [66] was greater than 100 µM and the TGI [47] was greater than 100 µM. For the same compound, the TGI [48] was greater than 100 µM, the TGI [49] was greater than 100 µM and the TGI [67] was greater than 53.9 µM. It also gave a TGI [50] greater than 100 µM, a TGI [52] greater than 100 µM and a TGI [54] greater than 100 µM. For the same compound, the TGI [55] was 38.5 µM and the TGI [56] was greater than 100 µM.
